The values below come from patent US20110229570A1, “ORALLY RAPIDLY DISINTEGRATING TABLET AND PROCESS FOR PRODUCING SAME” (priority 2008, published 2011).

The nature of series [1]: Water wettability (wetness time) of tablet. Particulars: 1000 kg/punch; for Wetness time, tablet obtained by compressing an excipient only: 300 mg tablet, flat punch 10 mm; for Wetness time, tablet obtained by compressing a mixture of an excipient and a water-insoluble polymer: 300 mg. It is filed as physicochemical. How it is done: A water wettability (wetness time) of a tablet was measured in accordance with a known procedure [Chem. Pharm. Bull. 44 (1), 2121-2127 (1996)] as below. Specifically, purified water (6 mL) was put in a weighing dish, and thereon were placed quarto tissue papers (205 mm×120 mm, KimWipe S-200, manufactured by NIPPON PAPER CRECIA Co., LTD). The papers were entirely moistened, and then thereon was gently placed one tablet, and a wetness time required for entirely moistening the tablet was measured.

Series [2] is described as follows: Hardness of tablet (tablet hardness tester). Format: physicochemical. Particulars: 1000 kg/punch; for Hardness, tablet obtained by compressing an excipient only: 300 mg tablet, flat punch 10 mm; for Hardness, tablet obtained by compressing a mixture of an excipient and a water-insoluble polymer: 300 mg. The procedure: A hardness of tablet was measured using a tablet hardness tester (manufactured by Schleuniger, type: 6D). The measurement was carried out thrice, and a hardness of tablet was obtained on an average thereof.

[3] abbreviates: (*1) 97 parts excipient + 3 parts HPMC-AS HF.
Where [4] appears, read: (*2) 90 parts excipient + 10 parts HPMC-AS HF.

Turning to `OC[C@@H](O)[C@@H](O)[C@H](O)[C@H](O)CO` [D-mannitol], the “Wetness time, tablet obtained by compressing an excipient only” value in series [1] was 18 s. The “Wetness time, tablet obtained by compressing a mixture of an excipient and a water-insoluble polymer” value in series [1] (setting [3]) was 43 (*1) seconds. Besides, in series [2], the “Hardness, tablet obtained by compressing an excipient only” value turned out to be 12 N. Moreover, in series [2] (setting [3]), the “Hardness, tablet obtained by compressing a mixture of an excipient and a water-insoluble polymer” value is 53 (*1) N.

Turning to `OC[C@@H](O)[C@@H](O)CO` [Erythritol], the “Wetness time, tablet obtained by compressing a mixture of an excipient and a water-insoluble polymer” value in series [1] (setting [4]) was 37 (*2) seconds. For the same molecule, the “Hardness, tablet obtained by compressing an excipient only” value in series [2] is recorded as less than 4 N. The “Hardness, tablet obtained by compressing a mixture of an excipient and a water-insoluble polymer” value in series [2] (setting [4]) is listed as 23 (*2) N.

Consider `OC[C@H]1O[C@@](CO)(O[C@H]2O[C@H](CO)[C@@H](O)[C@H](O)[C@H]2O)[C@@H](O)[C@@H]1O` [Purified sucrose], for which the “Wetness time, tablet obtained by compressing an excipient only” value in series [1] came to 3 s. For the same molecule, the “Hardness, tablet obtained by compressing an excipient only” value in series [2] came to 41 N.

On to `OC[C@@H](O)[C@@H](O)[C@H](O)[C@@H](O)CO` [Sorbitol], for which the “Wetness time, tablet obtained by compressing an excipient only” value in series [1] is more than 300 s. Moreover, the “Wetness time, tablet obtained by compressing a mixture of an excipient and a water-insoluble polymer” value in series [1] (setting [3]) is recorded as >300 (*1) seconds. Moreover, the “Hardness, tablet obtained by compressing an excipient only” value in series [2] amounted to 229 N. In addition, the “Hardness, tablet obtained by compressing a mixture of an excipient and a water-insoluble polymer” value in series [2] (setting [3]) is on record as 207 (*1) N.

Take `OC[C@@H](O)[C@H](O)[C@@H](O)CO` [Xylitol]: the “Wetness time, tablet obtained by compressing an excipient only” value in series [1] amounted to 3 s. Besides, in series [1] (setting [4]), the “Wetness time, tablet obtained by compressing a mixture of an excipient and a water-insoluble polymer” value is given as 74 (*2) seconds. The “Hardness, tablet obtained by compressing an excipient only” value in series [2] is reported as 12 N. The “Hardness, tablet obtained by compressing a mixture of an excipient and a water-insoluble polymer” value in series [2] (setting [4]) is on record as 38 (*2) N.
